From patent publication US20210395239A1 (Hoffmann-La Roche Inc., priority 2018, published 2021)

These compounds were tested against T1, hTLR9 (Homo sapiens, UniProt Q9NR96) (assay: HEK293-Blue-hTLR-9 cells assay (SEAP reporter, ODN2006 stimulation)). Settings: HEK293-Blue-hTLR9 cells, ODN2006, 20 hrs; read-out: HEK/hTLR9 IC50.
T1 sequence (Q9NR96 26-1032): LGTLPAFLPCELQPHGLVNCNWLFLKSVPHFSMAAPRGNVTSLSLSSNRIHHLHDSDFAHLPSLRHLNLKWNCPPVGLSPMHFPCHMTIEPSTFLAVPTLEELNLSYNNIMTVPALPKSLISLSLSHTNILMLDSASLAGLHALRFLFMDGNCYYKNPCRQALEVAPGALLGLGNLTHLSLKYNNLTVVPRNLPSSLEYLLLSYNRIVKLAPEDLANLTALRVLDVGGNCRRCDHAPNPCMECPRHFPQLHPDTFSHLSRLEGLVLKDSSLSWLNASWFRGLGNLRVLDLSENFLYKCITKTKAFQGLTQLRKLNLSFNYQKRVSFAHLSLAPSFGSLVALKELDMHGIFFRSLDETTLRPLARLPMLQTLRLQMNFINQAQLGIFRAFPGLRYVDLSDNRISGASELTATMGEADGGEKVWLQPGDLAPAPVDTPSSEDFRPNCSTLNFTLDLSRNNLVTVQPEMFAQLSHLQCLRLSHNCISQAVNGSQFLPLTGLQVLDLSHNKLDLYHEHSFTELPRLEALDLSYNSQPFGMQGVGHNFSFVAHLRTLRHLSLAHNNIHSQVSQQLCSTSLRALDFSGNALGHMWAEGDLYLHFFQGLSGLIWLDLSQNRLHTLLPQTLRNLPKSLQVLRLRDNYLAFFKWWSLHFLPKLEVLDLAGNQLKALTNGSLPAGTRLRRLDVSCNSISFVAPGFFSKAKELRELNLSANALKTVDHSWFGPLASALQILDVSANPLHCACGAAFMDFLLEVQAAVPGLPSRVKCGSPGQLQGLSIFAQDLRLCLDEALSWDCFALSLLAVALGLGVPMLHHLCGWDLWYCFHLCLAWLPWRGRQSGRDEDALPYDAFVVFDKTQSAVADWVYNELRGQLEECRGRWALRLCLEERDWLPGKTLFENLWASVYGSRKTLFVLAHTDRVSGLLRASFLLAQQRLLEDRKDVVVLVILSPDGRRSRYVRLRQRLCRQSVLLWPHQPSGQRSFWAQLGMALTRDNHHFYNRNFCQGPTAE
Format: cell-based
Set-up: host or cells: HEK293 (HEK-Blue hTLR9)
How it was run: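 Antagonism read as lowered SEAP reporter absorbance (620–655 nm, QUANTI-Blue, 2 h, 37 °C) in supernatants. Before that, ODN2006-stimulated HEK293-Blue cells stably expressing human TLR9 were exposed to compound dilutions at 1% final DMSO for 20 h at 37 °C.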

Compound	IC50 [nM]
Cc1ccc(N2C[C@H](CN3CCN(c4nccc(N5CCNCC5)n4)CC3)O[C@H](C)C2)c2nccnc12 [Example 116, (2R,6S)-2-methyl-4-(8-methylquinoxalin-5-yl)-6-[[4-(4-piperazin-1-ylpyrimidin-2-yl)piperazin-1-yl]methyl]morpholine]	89
Cc1ccc(N2C[C@H](CN3CCN(c4ccnc(N5CCNCC5)n4)CC3)O[C@H](C)C2)c2nccnc12 [Example 117, (2R,6S)-2-methyl-4-(8-methylquinoxalin-5-yl)-6-[[4-(2-piperazin-1-ylpyrimidin-4-yl)piperazin-1-yl]methyl]morpholine]	109
C[C@@H]1CN(c2ccc(C#N)c3nccnc23)C[C@H](CN2CCN(c3nccc(N4CC(N)C4)n3)CC2)O1 [Example 118, 8-[(2S,6R)-2-[[4-[4-(3-aminoazetidin-1-yl)pyrimidin-2-yl]piperazin-1-yl]methyl]-6-methyl-morpholin-4-yl]quinoxaline-5-carbonitrile]	51
C[C@@H]1CN(c2ccc(C#N)c3nccnc23)C[C@H](CN2CCN(c3nccc(N4C[C@@H](N)[C@H](F)C4)n3)CC2)O1 [Example 119, 8-[(2S,6R)-2-[[4-[4-[(3R,4R)-3-amino-4-fluoro-pyrrolidin-1-yl]pyrimidin-2-yl]piperazin-1-yl]methyl]-6-methyl-morpholin-4-yl]quinoxaline-5-carbonitrile]	94
CO[C@@H]1CN(c2cc(C)nc(N3CCN(C[C@H]4CN(c5ccc(C#N)c6nccnc56)C[C@@H](C)O4)CC3)n2)C[C@@H]1N [Example 120, 8-[(2S,6R)-2-[[4-[4-[(3S,4R)-3-amino-4-methoxy-pyrrolidin-1-yl]-6-methyl-pyrimidin-2-yl]piperazin-1-yl]methyl]-6-methyl-morpholin-4-yl]quinoxaline-5-carbonitrile]	31
CO[C@@H]1CN(c2cc(C)nc(N3CCN(C[C@H]4CN(c5ccc(C#N)c6nccnc56)C[C@@H](C)O4)CC3)n2)C[C@H]1N [Example 121, 8-[(2S,6R)-2-[[4-[4-[(3R,4R)-3-amino-4-methoxy-pyrrolidin-1-yl]-6-methyl-pyrimidin-2-yl]piperazin-1-yl]methyl]-6-methyl-morpholin-4-yl]quinoxaline-5-carbonitrile]	44
CO[C@H]1CN(c2cc(C)nc(N3CCN(C[C@H]4CN(c5ccc(C#N)c6nccnc56)C[C@@H](C)O4)CC3)n2)C[C@H]1N [Example 122, 8-[(2S,6R)-2-[[4-[4-[(3R,4S)-3-amino-4-methoxy-pyrrolidin-1-yl]-6-methyl-pyrimidin-2-yl]piperazin-1-yl]methyl]-6-methyl-morpholin-4-yl]quinoxaline-5-carbonitrile]	31
Cc1cc(N2CC(N)C2)nc(N2CCN(C[C@H]3CN(c4ccc(C#N)c5nccnc45)C[C@@H](C)O3)CC2)n1 [Example 123, 8-[(2S,6R)-2-[[4-[4-(3-aminoazetidin-1-yl)-6-methyl-pyrimidin-2-yl]piperazin-1-yl]methyl]-6-methyl-morpholin-4-yl]quinoxaline-5-carbonitrile]	31
[2H]c1nc2c(C#N)ccc(N3C[C@H](CN4CCN(c5nc(C)cc(N6CC(N)C6)n5)CC4)O[C@H](C)C3)c2nc1[2H] [Example 124, 8-[(2S,6R)-2-[[4-[4-(3-aminoazetidin-1-yl)-6-methyl-pyrimidin-2-yl]piperazin-1-yl]methyl]-6-methyl-morpholin-4-yl]-2,3-dideuterio-quinoxaline-5-carbonitrile]	31
Cc1cc(N2C[C@@H](N)[C@](C)(O)C2)nc(N2CCN(C[C@H]3CN(c4ccc(C#N)c5nccnc45)C[C@@H](C)O3)CC2)n1 [Example 125, 8-[(2S,6R)-2-[[4-[4-[(3R,4R)-4-amino-3-hydroxy-3-methyl-pyrrolidin-1-yl]-6-methyl-pyrimidin-2-yl]piperazin-1-yl]methyl]-6-methyl-morpholin-4-yl]quinoxaline-5-carbonitrile]	83
Cc1ccc(N2C[C@H](CN3CCN(c4ccnc(N5CC6(CNCCO6)C5)n4)CC3)O[C@H](C)C2)c2nccnc12 [Example 126, 2-[4-[4-[[(2S,6R)-6-methyl-4-(8-methylquinoxalin-5-yl)morpholin-2-yl]methyl]piperazin-1-yl]pyrimidin-2-yl]-5-oxa-2,8-diazaspiro[3.5]nonane]	146
Cc1ccc(N2C[C@H](CN3CCN(c4ccnc(N5CCN[C@@H](C)C5)n4)CC3)O[C@H](C)C2)c2nccnc12 [Example 127, (2R,6S)-2-methyl-6-[[4-[2-[(3S)-3-methylpiperazin-1-yl]pyrimidin-4-yl]piperazin-1-yl]methyl]-4-(8-methylquinoxalin-5-yl)morpholine]	149
Cc1ccc(N2C[C@H](CN3CCN(c4ccnc(N5CCN[C@H](C)C5)n4)CC3)O[C@H](C)C2)c2nccnc12 [Example 128, (2R,6S)-2-methyl-6-[[4-[2-[(3R)-3-methylpiperazin-1-yl]pyrimidin-4-yl]piperazin-1-yl]methyl]-4-(8-methylquinoxalin-5-yl)morpholine]	182
Cc1ccc(N2C[C@H](CN3CCN(c4ccnc(N5C[C@H]6NCCO[C@@H]6C5)n4)CC3)O[C@H](C)C2)c2nccnc12 [Example 129, (4aR,7aR)-6-[4-[4-[[(2S,6R)-6-methyl-4-(8-methylquinoxalin-5-yl)morpholin-2-yl]methyl]piperazin-1-yl]pyrimidin-2-yl]-3,4,4a,5,7,7a-hexahydro-2H-pyrrolo[3,4-b][1,4]oxazine]	171
Cc1ccc(N2C[C@H](CN3CCN(c4ccnc(N5CC(N)C5)n4)CC3)O[C@H](C)C2)c2nccnc12 [Example 130, 1-[4-[4-[[(2S,6R)-6-methyl-4-(8-methylquinoxalin-5-yl)morpholin-2-yl]methyl]piperazin-1-yl]pyrimidin-2-yl]azetidin-3-amine]	155
[2H]c1ccc2c(N3C[C@H](CN4CCN(c5nc(OC)cc(N6CC(C)(N)C6)n5)CC4)O[C@H](C)C3)ccc(C#N)c2n1 [Example 131, 5-[(2S,6R)-2-[[4-[4-(3-amino-3-methyl-azetidin-1-yl)-6-methoxy-pyrimidin-2-yl]piperazin-1-yl]methyl]-6-methyl-morpholin-4-yl]-2-deuterio-quinoline-8-carbonitrile]	113
[2H]c1ccc2c(N3C[C@H](CN4CCN(c5ccc(N6CC(C)(N)C6)nc5)CC4)O[C@H](C)C3)ccc(C#N)c2n1 [Example 132, 5-[(2S,6R)-2-[[4-[6-(3-amino-3-methyl-azetidin-1-yl)-3-pyridyl]piperazin-1-yl]methyl]-6-methyl-morpholin-4-yl]-2-deuterio-quinoline-8-carbonitrile]	140
[2H]c1ccc2c(N3C[C@H](CN4CCN(c5cnc(N6CC(C)(N)C6)cc5C)CC4)O[C@H](C)C3)ccc(C#N)c2n1 [Example 133, 5-[(2S,6R)-2-[[4-[6-(3-amino-3-methyl-azetidin-1-yl)-4-methyl-3-pyridyl]piperazin-1-yl]methyl]-6-methyl-morpholin-4-yl]-2-deuterio-quinoline-8-carbonitrile]	68
[2H]c1ccc2c(N3C[C@H](CN4CCN(c5nc(C)cc(N6C[C@H](OC)[C@@H](N)C6)n5)CC4)O[C@H](C)C3)ccc(C#N)c2n1 [Example 134, 5-[(2S,6R)-2-[[4-[4-[(3S,4S)-3-amino-4-methoxy-pyrrolidin-1-yl]-6-methyl-pyrimidin-2-yl]piperazin-1-yl]methyl]-6-methyl-morpholin-4-yl]-2-deuterio-quinoline-8-carbonitrile]	48
[2H]c1ccc2c(N3C[C@H](CN4CCN(c5nc(C)cc(N6CC(C)(N)C6)n5)CC4)O[C@H](C)C3)ccc(C#N)c2n1 [Example 135, 5-[(2S,6R)-2-[[4-[4-(3-amino-3-methyl-azetidin-1-yl)-6-methyl-pyrimidin-2-yl]piperazin-1-yl]methyl]-6-methyl-morpholin-4-yl]-2-deuterio-quinoline-8-carbonitrile]	56
[2H]c1ccc2c(N3C[C@H](CN4CCN(c5nc(C)cc(N6CC(N)C6)n5)CC4)O[C@H](C)C3)ccc(C#N)c2n1 [Example 136, 5-[(2S,6R)-2-[[4-[4-(3-aminoazetidin-1-yl)-6-methyl-pyrimidin-2-yl]piperazin-1-yl]methyl]-6-methyl-morpholin-4-yl]-2-deuterio-quinoline-8-carbonitrile]	33
